{"source": "paper PMC12593396", "about": "(2025)", "system": "3WJ (PAGE) (DNA, junction) CGGAACGGCACTCG/CGAGTGCAGCGTGG/CCACGCTCGTTCCG", "assay": "PAGE junction assembly", "conditions": "10 mM NaCl, 1x TB"}
{"smiles": "[Pt+2].[Pt+2].c1cncc(Oc2ccc(Oc3cccnc3)cc2)c1.c1cncc(Oc2ccc(Oc3cccnc3)cc2)c1.c1cncc(Oc2ccc(Oc3cccnc3)cc2)c1.c1cncc(Oc2ccc(Oc3cccnc3)cc2)c1", "values": [{"measurement": "binding", "setting": "0.1 to 5 equivalents", "result": "yes"}]}
{"smiles": "C(=Nc1ccc(Cc2ccc(N=Cc3ccccn3)cc2)cc1)c1ccccn1.C(=Nc1ccc(Cc2ccc(N=Cc3ccccn3)cc2)cc1)c1ccccn1.C(=Nc1ccc(Cc2ccc(N=Cc3ccccn3)cc2)cc1)c1ccccn1.[Ni+2].[Ni+2]", "values": [{"measurement": "binding", "result": "yes"}]}
